Experimental data published in PubChem BioAssay (NCI).
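Abbreviation: GI50, concentration required for 50% inhibition of growth. At the TGI there is no net growth.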

How the values were obtained:
Assay in all cases: DTP human tumour cell line panel, 384-well format
MDA-MB-435 melanoma = system: MDA-MB-435 melanoma
NCI-H460 NSCLC = system: NCI-H460 NSCLC
OVCAR-3 ovarian = system: OVCAR-3 ovarian
SW-620 colon = system: SW-620 colon
HCT-116 colon = system: HCT-116 colon
EKVX NSCLC = system: EKVX NSCLC
SK-MEL-28 melanoma = system: SK-MEL-28 melanoma
UO-31 renal = system: UO-31 renal
BT-549 breast = system: BT-549 breast
T-47D breast = system: T-47D breast
TK-10 renal = system: TK-10 renal
CCRF-CEM leukemia = system: CCRF-CEM leukemia
HT29 colon = system: HT29 colon
786-0 renal = system: 786-0 renal
HOP-92 NSCLC = system: HOP-92 NSCLC
MALME-3M melanoma = system: MALME-3M melanoma
UACC-257 melanoma = system: UACC-257 melanoma
MCF7 breast = system: MCF7 breast
SNB-75 CNS = system: SNB-75 CNS
NCI-H322M lung = system: NCI-H322M lung
A498 renal = system: A498 renal
IGROV1 ovarian = system: IGROV1 ovarian
M14 melanoma = system: M14 melanoma
SF-268 CNS = system: SF-268 CNS
K-562 leukemia = system: K-562 leukemia
NCI-H23 lung = system: NCI-H23 lung
MDA-MB-468 breast = system: MDA-MB-468 breast
NCI-H226 lung = system: NCI-H226 lung
SF-539 CNS = system: SF-539 CNS
HCT-15 colon = system: HCT-15 colon

Structure (SMILES): O=C(NC[C@H](O)CO)c1ccncc1Nc1ccc(I)cc1F
- TGI (MDA-MB-435 melanoma): > 100 µM
- GI50 (NCI-H460 NSCLC): 1.55 µM
- TGI (NCI-H460 NSCLC): > 100 µM
- GI50 (OVCAR-3 ovarian): 14 µM
- TGI (OVCAR-3 ovarian): > 100 µM
- GI50 (SW-620 colon): < 0.01 µM
- TGI (SW-620 colon): > 100 µM
- GI50 (HCT-116 colon): 0.0614 µM
- TGI (HCT-116 colon): 1.45 µM
- GI50 (EKVX NSCLC): 8.37 µM
- TGI (EKVX NSCLC): > 100 µM
- GI50 (SK-MEL-28 melanoma): < 0.01 µM
- TGI (SK-MEL-28 melanoma): 0.0136 µM
- GI50 (UO-31 renal): 0.354 µM
- TGI (UO-31 renal): 11.5 µM
- GI50 (BT-549 breast): 15 µM
- TGI (BT-549 breast): > 100 µM
- GI50 (T-47D breast): 26.1 µM
- TGI (T-47D breast): > 100 µM
- GI50 (TK-10 renal): 2.24 µM
- TGI (TK-10 renal): 39 µM
- GI50 (CCRF-CEM leukemia): 34.5 µM
- TGI (CCRF-CEM leukemia): > 100 µM
- GI50 (HT29 colon): 0.0156 µM
- TGI (HT29 colon): > 100 µM
- GI50 ([…]-0 renal): 19.6 µM
- TGI (786-0 renal): > 100 µM
- GI50 (HOP-92 NSCLC): 0.484 µM
- TGI (HOP-92 NSCLC): 3.62 µM
- GI50 (MALME-3M melanoma): < 0.01 µM
- GI50 (UACC-257 melanoma): < 0.01 µM
- TGI (UACC-257 melanoma): 0.0319 µM
- GI50 (MCF7 breast): 18.9 µM
- TGI (MCF7 breast): > 100 µM
- GI50 (SNB-75 CNS): 8.92 µM
- TGI (SNB-75 CNS): 68 µM
- GI50 (NCI-H322M lung): 0.498 µM
- TGI (NCI-H322M lung): > 100 µM
- GI50 (A498 renal): 2.63 µM
- TGI (A498 renal): 34.5 µM
- GI50 (IGROV1 ovarian): 0.0849 µM
- TGI (IGROV1 ovarian): 10.9 µM
- GI50 (M14 melanoma): < 0.01 µM
- TGI (M14 melanoma): 0.0235 µM
- GI50 (SF-268 CNS): > 100 µM
- TGI (SF-268 CNS): > 100 µM
- GI50 (K-562 leukemia): 0.423 µM
- TGI (K-562 leukemia): > 100 µM
- GI50 (NCI-H23 lung): 0.0413 µM
- TGI (NCI-H23 lung): 1.73 µM
- GI50 (MDA-MB-468 breast): 14.8 µM
- TGI (MDA-MB-468 breast): 36.2 µM
- GI50 (NCI-H226 lung): 0.614 µM
- TGI (NCI-H226 lung): 47.4 µM
- GI50 (SF-539 CNS): 2.9 µM
- TGI (SF-539 CNS): 25 µM
- GI50 (HCT-15 colon): 3.19 µM
- TGI (HCT-15 colon): > 100 µM
